Data as given in ChEMBL document CHEMBL1151871, “SAR around (l)-S-adenosyl-l-homocysteine, an inhibitor of human DNA methyltransferase (DNMT) enzymes” (Bioorg Med Chem Lett, 2009).
Calls of active or inactive are those of the source. No cut-off for these calls is given here.

Experiments:
[1] = biological target: DNA (cytosine-5)-methyltransferase 1 (Homo sapiens, UniProt P26358); assay: Inhibition of human recombinant DNMT1 expressed in baculovirus infected high five insect cells
[2] = biological target: T1, DNA (cytosine-5)-methyltransferase 3B (Homo sapiens, UniProt Q9UBC3); assay: biochemical
[3] = biological target: T1, DNA (cytosine-5)-methyltransferase 3B; assay: Inhibition of human recombinant DNMT3b2 expressed in baculovirus infected high five insect cells at 45 uM

Chain of DNA (cytosine-5)-methyltransferase 1 (P26358 whole entry): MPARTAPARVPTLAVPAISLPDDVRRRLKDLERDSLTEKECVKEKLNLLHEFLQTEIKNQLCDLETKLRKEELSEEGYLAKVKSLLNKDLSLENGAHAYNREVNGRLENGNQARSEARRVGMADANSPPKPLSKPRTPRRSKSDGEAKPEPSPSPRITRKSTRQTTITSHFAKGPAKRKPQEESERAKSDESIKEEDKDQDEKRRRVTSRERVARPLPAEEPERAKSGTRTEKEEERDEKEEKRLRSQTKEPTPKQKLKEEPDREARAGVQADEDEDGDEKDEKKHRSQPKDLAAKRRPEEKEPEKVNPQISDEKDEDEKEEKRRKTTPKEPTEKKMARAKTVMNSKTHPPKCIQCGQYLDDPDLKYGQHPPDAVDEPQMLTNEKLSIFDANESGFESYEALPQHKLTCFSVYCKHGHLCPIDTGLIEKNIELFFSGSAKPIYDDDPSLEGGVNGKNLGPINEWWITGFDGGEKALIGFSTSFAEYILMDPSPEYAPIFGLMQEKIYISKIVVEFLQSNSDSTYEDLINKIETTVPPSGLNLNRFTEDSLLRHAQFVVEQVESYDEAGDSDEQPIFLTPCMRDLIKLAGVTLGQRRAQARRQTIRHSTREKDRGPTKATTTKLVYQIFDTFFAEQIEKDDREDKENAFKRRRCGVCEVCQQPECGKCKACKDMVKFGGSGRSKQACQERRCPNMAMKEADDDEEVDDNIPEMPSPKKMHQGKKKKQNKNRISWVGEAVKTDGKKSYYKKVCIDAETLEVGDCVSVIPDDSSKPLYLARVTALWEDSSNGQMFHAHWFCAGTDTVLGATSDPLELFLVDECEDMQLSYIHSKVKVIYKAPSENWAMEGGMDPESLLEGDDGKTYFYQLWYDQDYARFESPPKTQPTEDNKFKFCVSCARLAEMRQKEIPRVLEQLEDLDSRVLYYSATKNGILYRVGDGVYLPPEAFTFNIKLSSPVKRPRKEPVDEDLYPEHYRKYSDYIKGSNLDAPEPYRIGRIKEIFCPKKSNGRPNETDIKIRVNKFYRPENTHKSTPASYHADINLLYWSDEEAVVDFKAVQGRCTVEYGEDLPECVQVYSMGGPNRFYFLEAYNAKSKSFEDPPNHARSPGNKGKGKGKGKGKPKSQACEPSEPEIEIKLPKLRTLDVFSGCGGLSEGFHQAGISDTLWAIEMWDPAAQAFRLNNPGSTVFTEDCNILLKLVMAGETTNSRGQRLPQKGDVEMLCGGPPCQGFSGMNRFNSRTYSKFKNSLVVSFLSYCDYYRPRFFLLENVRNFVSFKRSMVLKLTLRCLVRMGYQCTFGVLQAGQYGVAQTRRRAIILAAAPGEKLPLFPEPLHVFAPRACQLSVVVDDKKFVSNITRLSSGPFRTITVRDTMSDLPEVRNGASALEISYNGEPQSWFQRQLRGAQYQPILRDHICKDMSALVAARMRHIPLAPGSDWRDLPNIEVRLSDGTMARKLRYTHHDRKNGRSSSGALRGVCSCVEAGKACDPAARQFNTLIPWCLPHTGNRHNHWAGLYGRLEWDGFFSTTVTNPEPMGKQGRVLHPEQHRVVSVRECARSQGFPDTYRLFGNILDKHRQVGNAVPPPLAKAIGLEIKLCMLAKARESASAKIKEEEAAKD

| IC50 [1] [µM] | IC50 [2] [µM] | inhibition [3] | SMILES |
| --- | --- | --- | --- |
| 61 | 1 | – | NC(CCSC[C@H]1O[C@@H](n2cnc3c(NCc4ccccc4)ncnc32)[C@H](O)[C@@H]1O)C(=O)O (some centres undefined) |
| 75 | – | inactive | COc1nc(N)c2ncn([C@@H]3O[C@H](CSCCC(N)C(=O)O)[C@@H](O)[C@H]3O)c2n1 (some centres undefined) |
| – | 0.3 | – | Nc1ncnc2c1ncn2[C@@H]1O[C@H](CSCC[C@H](N)C(=O)O)[C@@H](O)[C@H]1O (racemic) [S-ADENOSYLHOMOCYSTEINE] |
| 8 | – | – | Nc1ncnc2c1nnn2[C@@H]1O[C@H](CSCCC(N)C(=O)O)[C@@H](O)[C@H]1O (some centres undefined) |
| 216 | 500 | – | CSc1nc(N)c2ncn([C@@H]3O[C@H](CSCCC(N)C(=O)O)[C@@H](O)[C@H]3O)c2n1 (some centres undefined) |
| – | > 1000 | – | N[C@@H](CCSC[C@H]1O[C@@H](n2cnc3c(=O)[nH]cnc32)[C@H](O)[C@@H]1O)C(=O)O |
